Experiment [1] concerns the target T1, VHL, compound preincubated with Brd4^BD2 L387A (Homo sapiens, UniProt O60885+P40337, L387A).
T1 construct: N-terminally Hiss-tagged VHL (54-213); N-terminally His6-tagged Brd4-BD2^L387A (333-460) was expressed in E. coli; His6 (N, cleaved yes); made in house; host or cells: E. coli
The experiment is described as follows: Fluorescence polarization competitive binding assay, ternary complex binding. The following applies: displacement of HIF-1a peptide probe, read-out: ternary binding affinity Kd. As for the experimental part:
Protein Expression and Purification. […] The complex was further purified by anion exchange followed by gel filtration chromatography.
Fluorescence Polarization Binding Assay. […] All components were dissolved from stock solutions using 100 mM Bis-Tris propane, 100 mM NaCl, 1 mM DTT, pH 7.0, to yield a final assay volume of 15 μL. DMSO was added as appropriate to ensure a final concentration of 2% v/v. […] Percentage displacement values were obtained by normalization of controls were plotted against Log[Compound]. IC50 values were determined for each titration using nonlinear regression analysis with Prism (v. 9.1.0, GraphPad). […] Cooperativity values (a) for each PROTAC were calculated using the ratio: α=binary Kd (−bromodomain)/ternary Kd (+bromodomain).
In general terms: Fluorescence polarisation rises when a labelled molecule tumbles more slowly, as on binding a larger partner.

The target of experiment [2] is T2, MCM2 (P49736), BromoTag N-term (Homo sapiens, UniProt O60885+P40337, L387A).
T2 construct: comprising residues 368-440 of human Brd4; MCM2 (endogenous protein, fusion partner in the same polypeptide); expressed in transfected cells
The experiment is described as follows: Degradation of BromoTag'ed MCM2 by AGB1. In kind it is cell-based. An excerpt: (§1) Degradation of a variety of target proteins. […] We performed CRISPR knock-in of the BromoTag, as described, into the endogenous loci of five additional proteins. […] The target proteins of Table 6 are all different, are all known to have different cellular roles and function, intracellular expression, and distinctive turnover rates within cells.

Experiment [3] has as its system BromoTag-protein conjugates. Briefly: Degradation of a variety of BromoTag'ed target proteins (summary). In kind it is cell-based. Conditions: treatment window of 100 nM-1 nM.
Text: as §1

For experiment [4], the system named is BRD3, BRD4 or any other endogenous protein. The experiment is described as follows: TMT labeling mass spectrometry proteomics, off-targets. In kind it is cell-based, human. Conditions: 1 μM, 2 h; >6,621 proteins quantified. On the procedure: Sample processing, TMT labelling and fractionation. CRISPR modified BromoTag-Brd2 HEK293 cells were seeded 5×10^6 cells on a […] 24 h before treatment. Cells were treated with either DMSO, 1 μM AGB1 or 1 μM cis-AGB1. 2 h post-treatment, the cells were washed twice with PBS. Cells were lysed in 150 μL of 100 mM TEAB, 5% (w/v) SDS. The lysate was sonicated for 10 s and then centrifuged at 15,000 g for 5 min with the supernatant collected post-centrifugation. Samples were then quantified using a micro-BCA protein assay kit (Thermo Fisher Scientific); 300 μg of each sample were then reduced, alkylated and then digested using Strap mini protocol (Protifi) protocol as described by the manufacturer (protifi) with some modification. Samples were double digested with trypsin (1:40) first overnight then for another 6 hrs with the same ratio (1:40) in 50 mM TEAB buffer. Peptides were quantified using a quantitative fluorometric peptide assay (Thermo Fisher Scientific). The samples (90 μg each) were labelled with a TMT 10-plex Isobaric Label Reagent set (Thermo Fisher Scientific) as per the manufacturer's instructions. After labelling, samples were checked for labelling efficiency, then mixed, desalted, and dried in a speed-vac at 30° C. Samples were re-dissolved in 200 μl ammonium formate (10 mM, pH 9.5) and peptides were fractionated using High pH RP Chromatography. […]

Structures are written as SMILES. A value given as a limit tells only on which side of the number the result lay.

In general, Kd refers to the equilibrium constant for the complex coming apart. By Dmax is commonly meant the largest share of the target that was removed. For `CC[C@@H](C(=O)OCCOCCOCCOCC(=O)N[C@H](C(=O)N1C[C@H](O)C[C@H]1C(=O)NCc1ccc(-c2scnc2C)cc1)C(C)(C)C)[C@@H]1N=C(c2ccc(Cl)cc2)c2c(sc(C)c2C)-n2c(C)nnc21` (single isomer, unassigned) [AGB1 (46)], the dissociation constant Kd in experiment [1] came to 0.011 µM. In addition, the Dmax in experiment [2] is greater than 95%. This compound gave a pDC50 in experiment [2] (BromoTag'ed MCM2, N-term tag) of 8.0. The “loss of total target protein” value in experiment [3] is “greater than 95%”. The “depletion of BRD3, BRD4 or any other endogenous protein (proteomics)” value in experiment [4] is recorded as “no detectable off-target effects”.
